According to patent US20260217701A1, “SELECTIVE BET INHIBITORS AND USES THEREOF” (Tay Therapeutics Limited, priority 2022, published 2026):
Read-outs that look alike come from different tables or passages of the source.

Experiment: Rat PK study #1 (Compound A PO, methylcellulose vs propylene glycol formulation)
Format: in vivo, Lewis rats
Conditions: male, rat, plasma, Lewis rats, PO 10 mg/kg; for concentration at 2 h / concentration at 4 h / concentration at 8 h / concentration at 24 h / AUC(0-t) / Tmax / Cmax / concentration at 0.083 h / concentration at 0.25 h / concentration at 0.5 h / concentration at 1 h: Lewis, po, 10 mg/kg; for Cmax: read-out: Cmax
Description: For the first rat pharmacokinetic study, the pharmacokinetics of Compound A were assessed in male Lewis rats. Compound A was prepared in two different formulations (1% methylcellulose and 20% propylene glycol/20% Vitamin E/60% water) according to Table 3A (see Tables 2A and 2D for formulations). The formulations were made fresh prior to use. Animals were divided into two groups based on the compound formulation (n=3/group). The Compound A solutions were administered to animals orally (PO) and animals were then monitored over a 24 h period.
Blood samples (~0.2 mL) were collected according to a schedule (0.083, 0.25, 0.5, 1, 2, 4, 8, and 24 h following the initial dosing) via the jugular vein by cannulation and EDTA-K2 was used as anticoagulant. Within 30 minutes of collection, the samples were centrifuged at approximately 4000 times g-force for 5 minutes at 4° C. to obtain blood plasma. The plasma samples were immediately divided into two aliquots (~75 μL each), transferred to a cryogenic vial, and stored in a freezer at −75±15° C. prior to analysis.
The concentration of Compound A in plasma samples was determined by liquid chromatography-mass spectrometry (LC-MS/MS) using a Shimadzu HPLC (DGU-20A5R; LC-30AD; SIL-30AC; Rack changer II; CTO-31A; and CBM-20A) and an AB API 5500 LC/MS/MS instrument. Samples were analyzed on an Agilent Poroshell 120 EC-C18 4 μm (50×2.1 mm) column. Solution A in the mobile phase was 95% water (0.1% formic acid) and solution B was 95% acetonitrile in water (0.1% formic acid), injection volume was 3 μL, and flow rate was 0.6 mL/min.
To prepare samples for analysis, serial concentrations were prepared by diluting the stock solution of analyte with a 50% acetonitrile in water solution. 5 μL working solutions (5, 10, 20, 50, 100, 500, 1000, 5000, and 10000 ng/ml) were added to 50 μL of the blank Lewis rat plasma to achieve calibration standards of ~0.5 to 1000 ng/ml (0.5, 1, 2, 5, 10, 50, 100, 500, and 1000 ng/ml) in a total volume of 55 μL. Five quality control samples at 1 ng/ml, 2 ng/ml, 5 ng/mL, 50 ng/mL, and 800 ng/mL for plasma were prepared independently of those used for the calibration curves. These QC samples were prepared on the day of analysis in the same way as calibration standards.
55 μL of standards, 55 μL of QC samples and 55 μL of unknown samples (50 μL of unknown rat plasma with 5 μL of blank solution) were added to 200 μL of acetonitrile containing internal standard (IS; verapamil) mixture for precipitating protein respectively. The samples were then vortexed for 30 s. After centrifugation at 4° C., 3900 rpm for 15 min, the supernatant was diluted 3 times with water. 3 μL of diluted supernatant was injected into the LC/MS/MS system for quantitative analysis.

[1] = 1% methylcellulose formulation, individual animals
[2] = 1% methylcellulose formulation, mean of 3 animals
[3] = propylene glycol/Vitamin E TPGS/water formulation, individual animals
[4] = propylene glycol/Vitamin E TPGS/water formulation, mean of 3 animals

Cn1cc(-c2ccccc2)c(-c2cn(C)c(=O)c3[nH]c(-c4cnn(C(F)(F)F)c4)cc23)cc1=O [Compound A, 6-methyl-4-(1-methyl-2-oxo-5-phenyl-1,2-dihydropyridin-4-yl)-2-(1-(trifluoromethyl)-1H-pyrazol-4-yl)-1,6-dihydro-7H-pyrrolo[2,3-c]pyridin-7-one]
concentration at 2 h [1]: 25.5 ng/mL | concentration at 2 h [2]: 23.3 ng/mL | concentration at 4 h [1]: 41.5 ng/mL | concentration at 4 h [2]: 44.6 ng/mL | concentration at 8 h [2]: 49.1 ng/mL | concentration at 24 h [2]: 2.77 ng/mL | AUC(0-t) [1]: 480 ng·h/mL | Tmax [1]: 4 h | Cmax [1]: 41.5 ng/mL | AUC(0-t) [2]: 694 ng·h/mL | Tmax [2]: 6.67 h | Cmax [2]: 53.1 ng/mL | concentration at 0.083 h [3]: 4.79 ng/mL | concentration at 0.083 h [4]: 4.29 ng/mL | concentration at 0.25 h [3]: 44.5 ng/mL | concentration at 0.25 h [4]: 43.8 ng/mL | concentration at 0.5 h [3]: 125 ng/mL | concentration at 0.5 h [4]: 131 ng/mL | concentration at 1 h [3]: 277 ng/mL | concentration at 1 h [4]: 268 ng/mL | concentration at 2 h [3]: 390 ng/mL | concentration at 2 h [4]: 396 ng/mL | concentration at 4 h [3]: 445 ng/mL | concentration at 4 h [4]: 399 ng/mL | concentration at 8 h [3]: 266 ng/mL | concentration at 8 h [4]: 189 ng/mL | concentration at 24 h [3]: 13.1 ng/mL | concentration at 24 h [4]: 12.7 ng/mL | AUC(0-t) [3]: 4950 ng·h/mL | Tmax [3]: 4 h | Cmax [3]: 445 ng/mL | AUC(0-t) [4]: 4040 ng·h/mL | Tmax [4]: 3.33 h | Cmax [4]: 419 ng/mL | AUC(0-inf) [3]: 3510 ng·h/mL | half-life [3]: 4.33 h | MRT inf (propylene glycol/Vitamin E TPGS/water formulation, individual animals, read-out: MRTInf_obs): 6.39 h
